Read-outs that look alike come from different tables or passages of the source.
Key:
JAK2 kinase domain (JH1) = JAK2 kinase domain (JH1) (Homo sapiens (Human), UniProt O60674); experiment: JAK2 Radioactive Kinase Assay; format: biochemical; details: for inhibition at 10 µM: read-out: JAK2 JH1% Inhibition @ 10 μM
Outline: (§1)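 Single-point screen: 10 μM test compound, radioactive kinase read-out, percent inhibition reported for each kinase domain.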

[1] = molecular target: human TYK2 (JH2domain-pseudokinase) (Homo sapiens (Human), UniProt P29597); experiment: TYK2 JH2 Domain Binding Assay (KINOMEscan)
Outline: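 Competition binding of a DNA-tagged fusion of human TYK2 JH2 pseudokinase (G556–D888) with NFkB DNA-binding domain, from HEK293 extracts (<0.1 nM final), against immobilised ligand beads; 1 h shaking at room temperature, 0.9% DMSO. Bound kinase quantified by qPCR.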

Tyk2 kinase domain (DH1) = Tyk2 kinase domain (DH1) (Homo sapiens (Human), UniProt P29597); experiment: Tyk2 Radioactive Kinase Assay; format: biochemical; details: for inhibition at 10 µM: read-out: Tyk2 JH1% Inhibition @ 10 μM
Outline: as §1

Sequence of human TYK2 (JH2domain-pseudokinase) (P29597 556-888): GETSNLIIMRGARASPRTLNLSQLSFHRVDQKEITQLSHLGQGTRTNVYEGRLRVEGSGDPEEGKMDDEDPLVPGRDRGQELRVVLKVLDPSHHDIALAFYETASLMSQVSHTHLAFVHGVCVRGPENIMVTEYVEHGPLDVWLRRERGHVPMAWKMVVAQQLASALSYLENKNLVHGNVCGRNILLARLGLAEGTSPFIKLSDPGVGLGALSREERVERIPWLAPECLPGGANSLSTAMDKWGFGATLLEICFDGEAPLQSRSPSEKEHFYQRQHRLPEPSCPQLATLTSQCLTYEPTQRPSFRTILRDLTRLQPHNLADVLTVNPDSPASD
Sequence of JAK2 kinase domain (JH1) (O60674 849-1124): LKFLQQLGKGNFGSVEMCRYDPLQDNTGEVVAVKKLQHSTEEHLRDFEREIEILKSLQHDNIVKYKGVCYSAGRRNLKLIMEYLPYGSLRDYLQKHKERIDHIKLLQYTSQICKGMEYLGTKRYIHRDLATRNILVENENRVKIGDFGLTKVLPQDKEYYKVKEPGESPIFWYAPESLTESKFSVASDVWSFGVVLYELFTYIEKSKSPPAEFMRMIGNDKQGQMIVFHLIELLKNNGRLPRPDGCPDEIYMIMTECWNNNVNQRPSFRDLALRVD
Sequence of Tyk2 kinase domain (DH1) (P29597 897-1176): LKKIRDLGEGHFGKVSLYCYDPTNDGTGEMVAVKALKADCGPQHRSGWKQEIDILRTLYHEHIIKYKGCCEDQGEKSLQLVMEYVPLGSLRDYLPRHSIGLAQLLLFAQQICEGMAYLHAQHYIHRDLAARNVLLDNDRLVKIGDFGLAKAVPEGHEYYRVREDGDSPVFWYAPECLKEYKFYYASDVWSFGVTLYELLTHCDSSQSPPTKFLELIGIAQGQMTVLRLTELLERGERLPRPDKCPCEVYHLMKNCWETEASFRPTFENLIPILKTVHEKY

Compound	inhibition at 10 µM (JAK2 kinase domain (JH1); compound at 10 μM, ATP 10 μM)	Kd [1]	inhibition at 10 µM (Tyk2 kinase domain (DH1); compound at 10 μM, ATP 10 μM)	JAK2 JH1% Inhibition @ 10 μM (JAK2 kinase domain (JH1); compound at 10 μM, ATP 10 μM)	Tyk2 JH1% Inhibition @ 10 μM (Tyk2 kinase domain (DH1); compound at 10 μM, ATP 10 μM)	inhibition at 10 µM (JAK2 kinase domain (JH1); 10 μM compound, 10 μM ATP)	inhibition at 10 µM (Tyk2 kinase domain (DH1); 10 μM compound, 10 μM ATP)
CNc1cc(Nc2cccnc2OC(F)(F)F)nc2c(C(N)=O)cnn12 [I-91]	< 50%	< 0.2 nM	< 50%	–	–	–	–
CNc1cc(Nc2cccn([C@@H]3CCCOC3)c2=O)nc2c(C(=O)NCC3(CO)CC3)cnn12 [I-700]	< 50%	0.2 to 1 nM	< 50%	–	–	–	–
CNc1cc(Nc2cccn([C@@H]3CCCOC3)c2=O)nc2c(C(=O)N[C@H]3CCC[C@H](O)C3)cnn12 [I-781]	–	< 0.2 nM	–	A (percent inhibition at 10 μM lower than 50)	A (percent inhibition at 10 μM lower than 50)	–	–
CNc1cc(Nc2cccc3ocnc23)nc2c(C(=O)N[C@@H]3COC[C@@H]3O)cnn12 [I-833]	–	> 10 nM	–	–	–	< 50%	< 50%
CNc1cc(-c2cn(C(C)C)c3ncccc23)nc2c(C(=O)NC3CC4(COC4)C3)cnn12 [I-629, 5-(1-isopropyl-1H-pyrrolo[2,3-b]pyridin-3-yl)-7-(methylamino)-N-(2-oxaspiro[3.3]heptan-6-yl)pyrazolo[1,5-a]pyrimidine-3-carboxamide]	< 50%	0.2 to 1 nM	< 50%	–	–	–	–
CNc1cc(Nc2cccc(N3CCC4(CCCO4)CC3)n2)nc2c(C(=O)N[C@H]3C[C@H]3F)cnn12 [I-656]	< 50%	< 0.2 nM	< 50%	–	–	–	–
CNc1cc(Nc2cccn([C@H]3CC[C@H](OC)CC3)c2=O)nc2c(C(=O)NC[C@@H](C)CO)cnn12 [I-830]	–	< 0.2 nM	–	–	–	< 50%	< 50%
CNc1cc(Nc2cccn(C3CC4(COC4)C3)c2=O)nc2c(C(=O)N[C@H]3CC[C@H]3O)cnn12 [I-763]	< 50%	< 0.2 nM	< 50%	–	–	–	–
CNc1cc(Nc2cccn(C3CC4(COC4)C3)c2=O)nc2c(C(=O)N[C@@H]3CC[C@@H]3O)cnn12 [I-871]	–	0.2 to 1 nM	–	–	–	< 50%	< 50%
CNc1cc(Nc2cccn([C@H]3C[C@@H]3F)c2=O)nc2c(C(=O)NC3CC3)cnn12 [I-867]	–	< 0.2 nM	–	–	–	< 50%	< 50%
CNC(=O)c1nscc1Nc1cc(NC)n2ncc(C(=O)NC3CC3)c2n1 [I-913]	–	0.2 to 1 nM	–	–	–	< 50%	< 50%
CNc1cc(Nc2cccn(-c3cccc(C(C)(C)O)n3)c2=O)nc2c(C(=O)NC3CC3)cnn12 [I-155]	< 50%	< 0.2 nM	< 50%	–	–	–	–
CNc1cc(Nc2cccn([C@H]3CC[C@H](O)CC3)c2=O)nc2c(C(=O)NC3CC3)cnn12 [I-167]	< 50%	< 0.2 nM	< 50%	–	–	–	–
CNc1cc(Nc2cccn([C@H]3CC[C@H](OC)CC3)c2=O)nc2c(C(=O)N[C@H]3CC[C@H]3O)cnn12 [I-561]	–	0.2 to 1 nM	–	A (percent inhibition at 10 μM lower than 50)	A (percent inhibition at 10 μM lower than 50)	–	–
CNc1cc(Nc2cccn([C@@H]3CCC[C@@H](O)C3)c2=O)nc2c(C(=O)N[C@H]3CC[C@@H]3OC)cnn12 [I-1064]	–	< 0.2 nM	–	–	–	< 50%	< 50%
CNc1cc(Nc2ccc3c(n2)OCCO3)nc2c(C(=O)NC3CC3)cnn12 [I-531]	< 50%	0.2 to 1 nM	< 50%	–	–	–	–
CNc1cc(Nc2cc(Cl)cnc2OC2CCC2)nc2c(C(=O)NC3COC3)cnn12 [I-93, 5-((5-chloro-2-cyclobutoxypyridin-3-yl)amino)-7-(methylamino)-N-(oxetan-3-yl)pyrazolo[1,5-a]pyrimidine-3-carboxamide]	< 50%	> 10 nM	< 50%	–	–	–	–

Compound	inhibition at 10 µM (JAK2 kinase domain (JH1); compound at 10 μM, ATP 10 μM)	Kd [1]	inhibition at 10 µM (Tyk2 kinase domain (DH1); compound at 10 μM, ATP 10 μM)	JAK2 JH1% Inhibition @ 10 μM (JAK2 kinase domain (JH1); compound at 10 μM, ATP 10 μM)	Tyk2 JH1% Inhibition @ 10 μM (Tyk2 kinase domain (DH1); compound at 10 μM, ATP 10 μM)	inhibition at 10 µM (JAK2 kinase domain (JH1); 10 μM compound, 10 μM ATP)	inhibition at 10 µM (Tyk2 kinase domain (DH1); 10 μM compound, 10 μM ATP)
CNc1cc(Nc2cccnc2OC)nc2c(C(=O)N[C@@H]3CCC[C@@H](O)C3)cnn12 (stereo in doubt) [I-459, N-(3-hydroxycyclohexyl)-5-((2-methoxypyridin-3-yl)amino)-7-(methylamino)pyrazolo[1,5-a]pyrimidine-3-carboxamide]	< 50%	< 0.2 nM	< 50%	–	–	–	–
CNc1cc(Nc2c(F)ccn(-c3nccs3)c2=O)nc2c(C(=O)NC3CC3)cnn12 [I-581]	< 50%	1 to 10 nM	< 50%	–	–	–	–
CNc1cc(Nc2cccnc2OC2CCOCC2)nc2c(C(=O)N[C@H]3C[C@H]3F)cnn12 [I-174]	< 50%	< 0.2 nM	< 50%	–	–	–	–
CNc1cc(Nc2cccnc2OC)nc2c(C(=O)N[C@H]3[C@@H]4COC[C@@H]43)cnn12 [I-445, N-((1R,5S,6r)-3-oxabicyclo[3.1.0]hexan-6-yl)-5-((2-methoxypyridin-3-yl)amino)-7-(methylamino)pyrazolo[1,5-a]pyrimidine-3-carboxamide]	< 50%	0.2 to 1 nM	< 50%	–	–	–	–
CNc1cc(Nc2cccn(C3CCOCC3)c2=O)nc2c(C(=O)N[C@H]3CC[C@H]3O)cnn12 [I-527]	< 50%	0.2 to 1 nM	< 50%	–	–	–	–
CNc1cc(Nc2cc(Cl)cn(C3CCOCC3)c2=O)nc2c(C(=O)N[C@H]3CC[C@H]3O)cnn12 [I-1068]	–	< 0.2 nM	–	–	–	< 50%	< 50%
CNc1cc(Nc2cccn([C@H]3CCCN(CCF)C3)c2=O)nc2c(C(=O)NC3CC3)cnn12 [I-880]	–	< 0.2 nM	–	–	–	< 50%	< 50%
CNc1cc(-c2cn(C(C)C)c3ncccc23)nc2c(C(=O)N[C@H]3COC[C@H]3O)cnn12 (stereo in doubt) [I-764, N-(4-hydroxytetrahydrofuran-3-yl)-5-(1-isopropyl-1H-pyrrolo[2,3-b]pyridin-3-yl)-7-(methylamino)pyrazolo[1,5-a]pyrimidine-3-carboxamide]	< 50%	< 0.2 nM	< 50%	–	–	–	–
CNc1cc(Nc2cccn([C@@H]3CCC[C@@H]3O)c2=O)nc2c(C(=O)N[C@H]3CC[C@@H]3OC)cnn12 [I-1100]	–	0.2 to 1 nM	–	–	–	< 50%	< 50%
CNc1cc(Nc2cccnc2O[C@@H]2CCOC2)nc2c(C(=O)NC3CC3)cnn12 [I-172]	< 50%	0.2 to 1 nM	< 50%	–	–	–	–
CNc1cc(Nc2cccn(-c3nc(C)co3)c2=O)nc2c(C(=O)NC[C@H](C)CO)cnn12 [I-736]	< 50%	< 0.2 nM	< 50%	–	–	–	–
CNc1cc(Nc2cc(Cl)cn(C3CCOCC3)c2=O)nc2c(C(=O)N[C@@H]3CC[C@@H]3O)cnn12 [I-1069]	–	0.2 to 1 nM	–	–	–	< 50%	< 50%
[2H]C([2H])([2H])Oc1ncccc1Nc1cc(NC)n2ncc(C(=O)NCCC(C)(C)O)c2n1 [I-421, N-(3-hydroxy-3-methylbutyl)-5-((2-(methoxy-d3)pyridin-3-yl)amino)-7-(methylamino)pyrazolo[1,5-a]pyrimidine-3-carboxamide]	< 50%	0.2 to 1 nM	< 50%	–	–	–	–
NC(=O)c1cnn2c(N)cc(Nc3cc(Cl)cnc3OC3CCC3)nc12 [I-81]	< 50%	1 to 10 nM	< 50%	–	–	–	–
CNc1cc(Nc2cccn([C@@H]3CCCC[C@@H]3OC)c2=O)nc2c(C(=O)N[C@@H]3CC[C@H]3OC)cnn12 [I-1128]	–	1 to 10 nM	–	–	–	< 50%	< 50%
CNc1cc(Nc2cccn([C@@H]3CCCC[C@@H]3OC)c2=O)nc2c(C(=O)N[C@H]3CC[C@@H]3OC)cnn12 [I-1037]	–	0.2 to 1 nM	–	–	–	< 50%	< 50%
CNc1cc(Nc2cccnc2OC)nc2c(C(=O)NCCC3(O)CC3)cnn12 [I-468, N-(2-(1-hydroxycyclopropyl)ethyl)-5-((2-methoxypyridin-3-yl)amino)-7-(methylamino)pyrazolo[1,5-a]pyrimidine-3-carboxamide]	< 50%	0.2 to 1 nM	< 50%	–	–	–	–
